Data taken from US4855287A, “Aminoglycoside compounds, processes for production thereof, and pharamaceutical composition containing the same” (Kowa Company, Ltd., priority 1985, dated 1989).
Where two headings read alike, the source gives them in different places.

Test system: Bacillus subtilis ATCC 6633
Assay: Test for antibacterial activity (paper disk, diameter of inhibitory zone, before and after incubation in rat liver/kidney homogenate)
Format: cell-based
Conditions: 200 mcq/ml, 8 mm paper disk
Protocol: Each of the test compounds shown in the following table was dissolved in a concentration of 200 mcq/ml in a homogenate of a 10% physiological saline solution of an organ of a rat, and incubated at 37° C. for 2 hours. An enzymatic reaction was stopped by adding an equal amount of ethanol. The antibacterial activity of the test compound before incubation was compared with that after incubation. The incubation was carried out in an equal amount mixture of a liver homogenate and a kidney homogenate. The antibacterial activity was measured by a paper disk having a diameter of 8 mm using Bacillus subtilis ATCC 6633 as a test organism, and shown by the diameter of the resulting inhibitory zone.

[1] = ATCC6633, after incubation at 37° C. for 2 hours in rat liver homogenate and kidney homogenate, read-out: Diameter of the inhibitory zone, after incubation
[2] = ATCC6633, before incubation, read-out: Diameter of the inhibitory zone, before incubation

SMILES | zone of inhibition at 200 µg/mL [1] | zone of inhibition at 200 µg/mL [2]
CCCCCCCCCC(=O)OCCOC(=O)CC[C@H](N)C(=O)NCC(=O)N(C)C1C(O)CC(N)C(OC2OC(C(C)N)CCC2N)C1O (stereo partly drawn) [Example 15, 2"-N-[γ-O-(2-decanoyloxyethyl)-L-glutamyl]-5-de-O-methyl-KA-6606I] | 24.4 mm | 13.9 mm
CCCCCCCCCC(=O)OCC(COC(=O)CCCCCCCCC)OC(=O)CCC(N)C(=O)NCC(=O)N(C)C1C(O)CC(N)C(OC2OC(C(C)N)CCC2N)C1O [Example 16, 2"-N-{γ-O-[2-(1,3-bis-decanoyloxy)propyl]-L-glutamyl}-5-de-O-methyl-KA-6606I] | 17.5 mm | 12.5 mm
CCCCCCCCCC(=O)OCC(COC(=O)CC[C@H](N)C(=O)NCC(=O)N(C)C1C(O)CC(N)C(OC2OC(C(C)N)CCC2N)C1O)OC(=O)CCCCCCCCC (stereo partly drawn) [Example 17, 2"-N-[γ-O-(2,3-bis-decanoyloxypropyl)-L-glutamyl]-5-de-O-methyl-KA-66606I] | 19.7 mm | 10.6 mm
CCCCCCCCCC(=O)OCCCOC(=O)CC[C@H](N)C(=O)NCC(=O)N(C)C1C(O)CC(N)C(OC2OC(C(C)N)CCC2N)C1O (stereo partly drawn) [Example 18, 2"-N-[γ-O-(3-decanoyloxypropyl)-L-glutamyl]-5-de-O-methyl-KA-6606I] | 23.9 mm | 16.8 mm
CCCCCCCCCCCCCCCCCC(=O)OCCCOC(=O)CC[C@H](N)C(=O)NCC(=O)N(C)C1C(O)CC(N)C(OC2OC(C(C)N)CCC2N)C1O (stereo partly drawn) [Example 19, 2"-N-[γ-O-(3-stearoyloxypropyl)-L-glutamyl]-5-de-O-methyl-KA-6606I] | 22.7 mm | 13.7 mm
CC(N)C1CCC(N)C(OC2C(N)CC(O)C(N(C)C(=O)CNC(=O)[C@@H](N)CCC(=O)OCCCCOC(=O)c3cccc4ccccc34)C2O)O1 (stereo partly drawn) [Example 21, 2"-N-{γ-O-[4-(α-naphthoyloxy)butyl]-L-glutamyl}-5-de-O-methyl-KA-6606I] | 22.6 mm | 15.1 mm
CCCCCCCCCC(=O)OCC(CCOC(=O)CC[C@H](N)C(=O)NCC(=O)N(C)C1C(O)CC(N)C(OC2OC(C(C)N)CCC2N)C1O)OC(=O)CCCCCCCCC (stereo partly drawn) [Example 22, 2"-N-{γ-[3,4-bis-(decanoyloxy)butyl]-L-glutamyl}-5-de-O-methyl-KA-6606I] | 18.3 mm | 10.7 mm
CCCCCCCCCC(=O)OCC(CCCCOC(=O)CC[C@H](N)C(=O)NCC(=O)N(C)C1C(O)CC(N)C(OC2OC(C(C)N)CCC2N)C1O)OC(=O)CCCCCCCCC (stereo partly drawn) [Example 23, 2"-N-{γ-[5,6-bis-(decanoyloxy)hexyl]-L-glutamyl}-5-de-O-methyl-KA-6606I] | 19.5 mm | 10.5 mm
CCCCCCCCCCCCCCCCCC(=O)OCCCCOC(=O)CC[C@H](N)C(=O)NCC(=O)N(C)C1C(O)CC(N)C(OC2OC(C(C)N)CCC2N)C1O (stereo partly drawn) [Example 24, 2"-N-[γ-O-(4-stearoyloxybutyl)-L-glutamyl]-5-de-O-methyl-KA-6606I] | 22.6 mm | 16.2 mm
CC(N)C1CCC(N)C(OC2C(N)CC(O)C(N(C)C(=O)CNC(=O)[C@@H](N)CCC(=O)OCCCCOC(=O)CC[C@@H](C)[C@H]3CC[C@H]4[C@@H]5CC[C@@H]6C[C@H](O)CC[C@]6(C)[C@H]5C[C@H](O)[C@]34C)C2O)O1 (stereo partly drawn) [Example 26, 2"-N-[γ-O-(4-deoxycholyloxybutyl)-L-glutamyl]-5-de-O-methyl-KA-6606I] | 21.8 mm | 14.8 mm
CCCCCCCCCC(=O)NCCCOC(=O)CC[C@H](N)C(=O)NCC(=O)N(C)C1C(O)CC(N)C(OC2OC(C(C)N)CCC2N)C1O (stereo partly drawn) [Example 28, 2"-N-[γ-O-(3-decanoylaminopropyl)-L-glutamyl]-5-de-O-methyl-KA-6606I] | 23.9 mm | 14.6 mm
CCCNC(=O)CC[C@H](N)C(=O)NCC(=O)N(C)C1C(O)CC(N)C(OC2OC(C(C)N)CCC2N)C1O (stereo partly drawn) [Example 29, 2"-N-(N^γ -propyl-L-glutaminyl)-5-de-O-methyl-KA-6606I] | 24.6 mm | 15.1 mm
CCCCCCNC(=O)CC[C@H](N)C(=O)NCC(=O)N(C)C1C(O)CC(N)C(OC2OC(C(C)N)CCC2N)C1O (stereo partly drawn) [Example 30, 2"-N-(N^γ-hexyl-L-glutaminyl)-5-de-O-methyl-KA-6606I] | 19.8 mm | 15 mm
CCCCCCCCNC(=O)CC[C@H](N)C(=O)NCC(=O)N(C)C1C(O)CC(N)C(OC2OC(C(C)N)CCC2N)C1O (stereo partly drawn) [Example 31, 2"-N-(N^γ-octyl-L-glutaminyl)-5-de-O-methyl-KA-6606I] | 19 mm | 15.3 mm
CCCCCCCCCCNC(=O)CC[C@H](N)C(=O)NCC(=O)N(C)C1C(O)CC(N)C(OC2OC(C(C)N)CCC2N)C1O (stereo partly drawn) [Example 32, 2"-N-(N^γ -decyl-L-glutaminyl)-5-de-O-methyl-KA-6606I] | 19 mm | 14.1 mm
CC(N)C1CCC(N)C(OC2C(N)CC(O)C(N(C)C(=O)CNC(=O)[C@@H](N)CCC(=O)Nc3cccc4ccccc34)C2O)O1 (stereo partly drawn) [Example 33, 2"-N-[N^γ-(1-naphthyl)-L-glutamin-yl]-de-O-methyl-KA-6606I] | 23.5 mm | 15.7 mm
CC(=O)NCCCNC(=O)CC[C@H](N)C(=O)NCC(=O)N(C)C1C(O)CC(N)C(OC2OC(C(C)N)CCC2N)C1O (stereo partly drawn) [Example 34, 2"-N-[N^γ -(3-acetylaminopropyl)-L-glutaminyl]-5-de-O-methyl-KA-66061] | 23.1 mm | 10.7 mm
CCCC(=O)NCCCNC(=O)CC[C@H](N)C(=O)NCC(=O)N(C)C1C(O)CC(N)C(OC2OC(C(C)N)CCC2N)C1O (stereo partly drawn) [Example 35, 2"-N-[N^γ -(3-n-butyrylaminopropyl)-L-glutaminyl]-5de-O-methyl-KA-6606I] | 20.7 mm | 10.7 mm
CCCCCC(=O)NCCCNC(=O)CC[C@H](N)C(=O)NCC(=O)N(C)C1C(O)CC(N)C(OC2OC(C(C)N)CCC2N)C1O (stereo partly drawn) [Example 36, 2"-N-[N^γ -(3-hexanoylaminopropyl)-L-glutaminyl]-5-de-O-methyl-KA-6606I] | 22.8 mm | 10.5 mm
CCCCCCCC(=O)NCCCNC(=O)CC[C@H](N)C(=O)NCC(=O)N(C)C1C(O)CC(N)C(OC2OC(C(C)N)CCC2N)C1O (stereo partly drawn) [Example 37, 2"-N-[N^γ -(3-octanoylaminopropyl)-L-glutaminyl]-5-do-O-methyl-KA-6606I] | 25.1 mm | 14.1 mm
CCCCCCCCCC(=O)NCCCNC(=O)CC[C@H](N)C(=O)NCC(=O)N(C)C1C(O)CC(N)C(OC2OC(C(C)N)CCC2N)C1O (stereo partly drawn) [Example 38, 2"-N-[N^γ -(3-decanoylaminopropyl)-L-glutaminyl]-5-de-O-methyl-KA-6606I] | 23.9 mm | 17.1 mm
CCCCCCCCCCCC(=O)NCCCNC(=O)CC[C@H](N)C(=O)NCC(=O)N(C)C1C(O)CC(N)C(OC2OC(C(C)N)CCC2N)C1O (stereo partly drawn) [Example 39, 2"-N-[N^γ -(3-lauroylaminopropyl)-L-glutaminyl]-5-de-O-methyl-KA-6606I] | 21.2 mm | 9.8 mm
CCCCCCCCCCCCCCCCCC(=O)NCCCNC(=O)CC[C@H](N)C(=O)NCC(=O)N(C)C1C(O)CC(N)C(OC2OC(C(C)N)CCC2N)C1O (stereo partly drawn) [Example 40, 2"-N-[N^γ -(3-stearoylaminopropyl)-L-glutaminyl]-5-de-O-methyl-KA-6606I] | 16.6 mm | 14.1 mm
CCCCCCCCCCCCCCCCCCCCCCCC(=O)NCCCNC(=O)CC[C@H](N)C(=O)NCC(=O)N(C)C1C(O)CC(N)C(OC2OC(C(C)N)CCC2N)C1O (stereo partly drawn) [Example 41, 2"-N-[N^γ -(3-lignocerolylaminopropyl)-L-glutaminyl]-5-de-O-methyl-KA-6606I] | 14.1 mm | 8 mm
CC(N)C1CCC(N)C(OC2C(N)CC(O)C(N(C)C(=O)CNC(=O)[C@@H](N)CCC(=O)NCCCCCCCCO)C2O)O1 (stereo partly drawn) [Example 42, 2"-N-[N^γ -(8-hydroxyoctyl)-L-glutaminyl]-5-de-O-methyl-KA-6606I] | 23 mm | 15.1 mm
CC(C)OCCCNC(=O)CC[C@H](N)C(=O)NCC(=O)N(C)C1C(O)CC(N)C(OC2OC(C(C)N)CCC2N)C1O (stereo partly drawn) [Example 43, 2"-N-[N^γ -(3-isopropoxypropyl)-L-glutaminyl]-5-de-O-methyl-KA-6606I] | 18.4 mm | 10.8 mm
CCCCCCNC(=O)CNC(=O)CC[C@H](N)C(=O)NCC(=O)N(C)C1C(O)CC(N)C(OC2OC(C(C)N)CCC2N)C1O (stereo partly drawn) [Example 44, 2"-N-[N^γ -(hexylaminocarbonylmethyl)-L-glutaminyl]-5-de-O-methyl-KA-6606I] | 20.2 mm | 8 mm
CC(=O)OC1CCC2(C)C(CCC3C2CC(OC(C)=O)C2(C)C(C(C)CCC(=O)NCCCNC(=O)CCC(N)C(=O)NCC(=O)N(C)C4C(O)CC(N)C(OC5OC(C(C)N)CCC5N)C4O)CCC32)C1 [Example 45, 2"-N-{N^γ -[3-(3,12-di-O-acetyldeoxycholylamino)propyl]-L-glutaminyl}-5-de-O-methyl-KA-6606I] | 16.7 mm | 14.8 mm
CCCOC1CCC2(C)C(CCC3C2CC(OCCC)C2(C)C(C(C)CCC(=O)NCCCNC(=O)CCC(N)C(=O)NCC(=O)N(C)C4C(O)CC(N)C(OC5OC(C(C)N)CCC5N)C4O)CCC32)C1 [Example 46, 2"-N-{N^γ -[3-(3,12-di-O-propyldeoxycholylamino)propyl]-L-glutaminyl}-5-di-O-methyl-KA-6606I] | 16.6 mm | 15.9 mm
